Results published in patent US10294202B2, “Pyrrolidinones as herbicides” (FMC Corporation, priority 2013, dated 2019).

Assays:
[1] = tested on: smartweed; assay: Test E preemergence herbicide test; type: in vivo, Polygonum Persicaria
Source text: Seeds of plant species selected from corn (Zea mays), soybean (Glycine max), velvetleaf (Abutilon theophrasti), lambsquarters (Chenopodium album), wild poinsettia (Euphorbia heterophylla), pigweed, palmer (palmer pigweed, Amaranthus palmeri), waterhemp (common waterhemp, Amaranthus rudis), surinam grass (Brachiaria decumbens), crabgrass, large (large crabgrass, Digitaria sanguinalis), crabgrass, Brazil (Brazilian crabgrass, Digitaria horizontalis), panicum, fall (fall panicum, Panicum dichotomiflorum), foxtail, giant (giant foxtail, Setaria faberii), foxtail, green (green foxtail, Setaria viridis), goosegrass (Eleusine indica), johnsongrass (Sorghum halepense), ragweed (common ragweed, Ambrosia elatior), barnyardgrass (Echinochloa crus-galli), sandbur (southern sandbur, Cenchrus echinatus), arrowleaf […] rhombifolia), ryegrass, Italian (Italian ryegrass, Lolium multiflorum), dayflower, VA (Virginia dayflower, Commelina virginica), field bindweed (Convolvulus arvensis), morningglory (Ipomoea coccinea), nightshade (eastern black nightshade, Solanum ptycanthum), kochia (Kochia scoparia), nutsedge, yellow (yellow nutsedge, Cyperus esculentus), cocklebur (common cocklebur, Xanthium strumarium), smartweed (ladysthumb smartweed, Polygonum Persicaria) and beggarticks (hairy beggarticks, Bidens pilosa), were planted into a silt loam soil and treated preemergence with test chemicals formulated in a non-phytotoxic solvent mixture which included a surfactant. Treated plants and controls were maintained in a greenhouse for 21 days, after which time all species were compared to controls and visually evaluated. Plant response ratings, summarized in Table E, are based on a scale of 0 to 100 where 0 is no effect and 100 is complete control. A dash (-) response means no test result.

[2] = tested on: bulrush, hardstem; assay: Test F flood (paddy) test; type: in vivo, Scirpus juncoides; details: 21 d, scale 0-100
Source text: (§1) Three plastic pots (ca. 16-cm diameter) per rate were partially filled with sterilized Tama silt loam soil comprising a 35:50:15 ratio of sand, silt and clay and 2.6% organic matter. Separate plantings for each of the three pots were as follows. Seeds from the U.S. of monochoria (Monochoria vaginalis), sedge, umbrella (small-flower umbrella sedge, Cyperus difformis), bulrush, […] bulrush, Scirpus juncoides), and […] (purple […] coccinea), were planted into one 16-cm pot for each rate. Seeds from the U.S. of flatsedge, rice (rice flatsedge, Cyperus iria), sprangletop, Brdd. (bearded sprangletop, Leptochloa fascicularis), one stand of 9 or 10 water seeded rice seedlings (Rice, W.S. Jap, Oryza sativa cv. 'Japonica-[…]' or Rice, W.S. Ind, 'Indica'), and two stands of 3 or 4 seedlings of rice, transplanted (transplanted rice, Oryza sativa cv. 'Japonica-[…]') were planted into one 16-cm pot for each rate. Seeds from the U.S. of barnyardgrass (Echinochloa crus-galli), […] (common […], Alisma plantago-aquatica), and watergrass, late (late watergrass, Echinochloa oryzicola) were planted into one 16-cm pot for each rate. Plantings were sequential so that crop and weed species were at the 2.0 to 2.5-leaf stage at time of treatment. Potted plants were grown in a greenhouse with day/night temperature settings of 30/27° C., and supplemental balanced lighting was provided to maintain a 16-h photoperiod. Test pots were maintained in the greenhouse until test completion. At time of treatment, test pots were flooded to 3 cm above the soil surface, treated by application of test compounds directly to the paddy water, and then maintained at that water depth for the duration of the test. Effects of treatments on rice and weeds were visually evaluated by comparison to untreated controls after 21 d. Plant response ratings, summarized in Table F, are based on a scale of 0 to 100 where 0 is no effect and 100 is complete control. A dash (-) response means no test result.

[3] = tested on: sedge, umbrella; assay: Test F flood (paddy) test; type: in vivo, Cyperus difformis; details: 21 d, scale 0-100
Source text: as §1

[4] = tested on: Russian thistle; assay: Test C pre-/postemergence herbicide test; type: in vivo, Salsola kali; details: Preemergence
Source text: Seeds of plant species selected from blackgrass (Alopecurus myosuroides), ryegrass, Italian (Italian ryegrass, Lolium multiflorum), wheat (winter wheat, Triticum aestivum), galium (catchweed bedstraw, Galium aparine), corn (Zea mays), crabgrass, large (large crabgrass, Digitaria sanguinalis), foxtail, giant (giant foxtail, Setaria faberii), johnsongrass (Sorghum halepense), lambsquarters (Chenopodium album), morningglory (Ipomoea coccinea), nutsedge, yellow (yellow nutsedge, Cyperus esculentus), pigweed (Amaranthus retroflexus), ragweed (common ragweed, Ambrosia elatior), soybean (Glycine max), barnyardgrass (Echinochloa crus-galli), oilseed rape (Brassica napus), waterhemp (common waterhemp, Amaranthus rudis), kochia (Kochia scoparia), oat, wild (wild oat, Avena fatua), surinam grass (Brachiaria decumbens), foxtail, green (green foxtail, Setaria viridis), goosegrass (Eleusine indica), bromegrass, downy (downy bromegrass, Bromus tectorum), nightshade (eastern black nightshade, Solanum ptycanthum), cocklebur (common cocklebur, Xanthium strumarium), cupgrass, woolly (woolly cupgrass, Eriochloa villosa), bermudagrass (Cynodon dactylon), sunflower, (common oilseed sunflower, Helianthus annuus), Russian thistle (Salsola kali) and velvetleaf (Abutilon theophrasti) were planted into a blend of loam soil and sand and treated preemergence with test chemicals formulated in a non-phytotoxic solvent mixture which included a surfactant. At the same time, plants selected from these crop and weed species and also barley (winter barley, Hordeum vulgare), […]), chickweed (common chickweed, Stellaria media), deadnettle (henbit deadnettle, Lamium amplexicaule), and canarygrass (littleseed canarygrass, Phalaris minor) were planted in pots containing Redi-Earth® planting medium (Scotts Company, 14111 Scottslawn Road, Marysville, Ohio 43041) comprising spaghnum peat moss, vermiculite, wetting agent and starter nutrients and treated with postemergence applications of test chemicals formulated in the same manner. Plants ranged in height from 2 to 18 cm (1- to 4-leaf stage) for postemergence treatments. Treated plants and controls were maintained in a greenhouse for 13 to 15 days, after which time all species were compared to controls and visually evaluated. Plant response ratings, summarized in Table C, are based on a scale of 0 to 100 where 0 is no effect and 100 is complete control. A dash (-) response means no test result.

[5] = 125 g ai/ha, scale 0 to 100 (0 no effect, 100 complete control)

SMILES	Plant response rating, Bulrush, Hardstem ([2]; 125 g ai/ha)	Plant response rating, Bulrush, Hardstem ([2]; 250 g ai/ha)	Plant response rating, Bulrush, Hardstem ([2]; 500 g ai/ha)	Plant response rating, Sedge, Umbrella ([3]; 125 g ai/ha)	Plant response rating, Sedge, Umbrella ([3]; 250 g ai/ha)	Plant response rating, Sedge, Umbrella ([3]; 500 g ai/ha)	Plant response rating, Sedge, Umbrella ([3]; 1000 g ai/ha)	Plant response rating, Sedge, Umbrella ([3]; 2000 g ai/ha)	Plant response rating, Russian Thistle ([4]; 62 g ai/ha, scale 0 to 100)	Plant response rating, Russian Thistle [4, 5]	other results
O=C1NCC(c2ccc(C(F)(F)F)cc2)C1C(=O)Nc1cccc(F)c1F (stereo not drawn) [Compound 80, N-(2,3-difluorophenyl)-2-oxo-4-[4-(trifluoromethyl)phenyl]-3-pyrrolidinecarboxamide]	–	–	–	–	–	–	–	–	–	–	Plant response rating, Smartweed ([1]; 16 g ai/ha): 0; Plant response rating, Smartweed ([1]; 31 g ai/ha): 0; Plant response rating, Smartweed ([1]; 62 g ai/ha): 20; Plant response rating, Smartweed ([1]; 250 g ai/ha): 40
CN1CC(c2ccc(F)c(F)c2)C(C(=O)Nc2cccc(F)c2F)C1=O (stereo not drawn) [Compound 303]	0	70	80	0	0	0	–	–	–	–	Plant response rating, Bulrush, Hardstem ([2]; 62 g ai/ha): 0; Plant response rating, Sedge, Umbrella ([3]; 62 g ai/ha): 0
O=C1NCCC1C(=O)N(c1ccc(F)c(F)c1)c1ccccc1F (stereo not drawn) [Compound 5, N-(3,4-difluorophenyl)-N-(2-fluorophenyl)-2-oxo-3-pyrrolidinecarboxamide]	–	–	–	0	0	0	0	0	0	–	–
O=C1NCC(c2ccc(F)c(F)c2)C1C(=O)Nc1cccc(F)c1F (stereo not drawn) [Compound 17, N-(2,3-difluorophenyl)-4-(3,4-difluorophenyl)-2-oxo-3-pyrrolidinecarboxamide]	0	0	0	0	0	0	0	20	–	–	Plant response rating, Bulrush, Hardstem ([2]; 1000 g ai/ha): 0; Plant response rating, Bulrush, Hardstem ([2]; 2000 g ai/ha): 40
O=C1NCC(c2ccc(Cl)c(Cl)c2)C1C(=O)Nc1ccccc1F (racemic) [Compound 14]	–	–	–	–	–	–	–	–	0	0	Plant response rating, Smartweed ([1]; 125 g ai/ha): 0
O=C1NCC(c2ccc(F)c(Cl)c2)C1C(=O)Nc1ccccc1F (stereo not drawn) [Compound 60]	–	–	–	–	–	–	–	–	50	60	–
